From ChEMBL document CHEMBL3046603, “Synthesis and antibacterial, antifungal activities of some 2r,4c-diaryl-3-azabicyclo[3.3.1]nonan-9-one-4-aminobenzoyl hydrazones” (2012) come the findings set out here.

For test [1], the system named is Fusarium oxysporum. Put plainly: Antifungal activity against Fusarium oxysporum after 72 to 96 hr by two-fold serial dilution method. The test is classed as functional.
The subject of test [2] is Aspergillus flavus. Put plainly: Antifungal activity against Aspergillus flavus after 72 to 96 hr by two-fold serial dilution method. The test is classed as functional.
For test [3], the system named is Candida albicans. Put plainly: Antifungal activity against Candida albicans two-fold serial dilution method. Type of test: functional.
For test [4], the system named is Cryptococcus neoformans. Put plainly: Antifungal activity against Cryptococcus neoformans after 72 to 96 hr by two-fold serial dilution method. The test is classed as functional.
The subject of test [5] is Aspergillus niger. Put plainly: Antifungal activity against Aspergillus niger after 72 to 96 hr by two-fold serial dilution method. The test is classed as functional.
The test system of test [6] is Salmonella typhimurium. In words: Antibacterial activity against Salmonella enterica subsp. enterica serovar Typhimurium MTCC 98 after 24 hr two-fold serial dilution method. Type of test: functional. As to conditions: MTCC 98, 24 h.
Test [7] relates to Bacillus subtilis. Put plainly: Antibacterial activity against Bacillus subtilis MTCC 121 after 24 hr two-fold serial dilution method. As to conditions: MTCC 121, 24 h. The test is classed as functional.
In test [8] the test system is Klebsiella pneumoniae. Put plainly: Antibacterial activity against Klebsiella pneumoniae MTCC 2272 after 24 hr two-fold serial dilution method. Type of test: functional. As to conditions: MTCC 2272, 24 h.
Test [9] concerns Salmonella typhi. In words: Antibacterial activity against Salmonella enterica subsp. enterica serovar Typhi MTCC 531 after 24 hr two-fold serial dilution method. As to conditions: MTCC 531, 24 h. The test is classed as functional.
Test [10] deals with Escherichia coli. In words: Antibacterial activity against Escherichia coli MTCC 443 after 24 hr two-fold serial dilution method. The test is classed as functional. As to conditions: MTCC 443, 24 h.
Test [11] relates to Vibrio cholerae. Put plainly: Antibacterial activity against Vibrio cholerae after 24 hr two-fold serial dilution method. The test is classed as functional.
The subject of test [12] is Staphylococcus aureus. Put plainly: Antibacterial activity against Staphylococcus aureus MTCC 96 after 24 hr two-fold serial dilution method. Type of test: functional. As to conditions: MTCC 96, 24 h.
Test [13] relates to Pseudomonas aeruginosa. In words: Antibacterial activity against Pseudomonas aeruginosa MTCC 741 after 24 hr two-fold serial dilution method. Type of test: functional. As to conditions: MTCC 741, 24 h.
In test [14] the test system is Cryptococcus neoformans. Put plainly: Antifungal activity against Cryptococcus neoformans at 200 ug/ml after 72 to 96 hr by two-fold serial dilution method. The test is classed as functional, organism-based.

Values after ≈ are worked out from the molar mass of the structure shown. Active and inactive are the calls of the source.

`C[C@@H]1[C@H](O)[C@@H](C)/C=C/C=C/C=C/C=C/C=C/C=C/C=C/[C@H](O[C@@H]2O[C@H](C)[C@@H](O)[C@H](N)[C@@H]2O)C[C@@H]2O[C@](O)(C[C@@H](O)C[C@@H](O)[C@H](O)CC[C@@H](O)C[C@@H](O)CC(=O)O[C@H]1C)C[C@H](O)[C@H]2C(=O)O` [AMPHOTERICIN B]: the MIC (usually the smallest concentration in the dilution series that meets the test's criterion for growth inhibition) worked out at 25 µg/mL (≈ 27.1 µM) in test [1]; 50 µg/mL (≈ 54.1 µM) in [2]; 25 µg/mL (≈ 27.1 µM) in test [3]; 25 µg/mL (≈ 27.1 µM) in test [4]; 50 µg/mL (≈ 54.1 µM) in [5].

For `Nc1ccc(C(=O)NN=C2C3CCCC2C(c2ccc(Cl)cc2)NC3c2ccc(Cl)cc2)cc1` (configuration not stated), the MIC in test [6] was 200 µg/mL (≈ 405 µM); in test [7], 50 µg/mL (≈ 101 µM); in [1] it was 200 µg/mL (≈ 405 µM); in test [8] it was 200 µg/mL (≈ 405 µM); in [2], 100 µg/mL (≈ 203 µM); in test [3] it was 100 µg/mL (≈ 203 µM). Besides, the MIC in test [9] came to 200 µg/mL (≈ 405 µM); in [10], 50 µg/mL (≈ 101 µM); in test [11], 100 µg/mL (≈ 203 µM); in [12], 50 µg/mL (≈ 101 µM); in [4], 200 µg/mL (≈ 405 µM); in test [13], 100 µg/mL (≈ 203 µM). This molecule also came in with an MIC in [5] of 50 µg/mL (≈ 101 µM).

For `Nc1ccc(C(=O)NN=C2C3CCCC2C(c2ccc(Br)cc2)NC3c2ccc(Br)cc2)cc1` (configuration not stated), the MIC in [6] came out at 200 µg/mL (≈ 343 µM); in test [7], 200 µg/mL (≈ 343 µM); in test [1] it was 100 µg/mL (≈ 172 µM); in test [8] it was 200 µg/mL (≈ 343 µM); in test [2], 100 µg/mL (≈ 172 µM); in [3] it was 200 µg/mL (≈ 343 µM). In addition, the MIC in test [9] stood at 50 µg/mL (≈ 85.9 µM); in test [10], 100 µg/mL (≈ 172 µM); in [11], 200 µg/mL (≈ 343 µM); in [12], 50 µg/mL (≈ 85.9 µM); in [4], 100 µg/mL (≈ 172 µM); in test [13] it was 50 µg/mL (≈ 85.9 µM). This molecule yielded an MIC in test [5] of 50 µg/mL (≈ 85.9 µM).

For the molecule `Cc1ccc(C2NC(c3ccc(C)cc3)C3CCCC2C3=NNC(=O)c2ccc(N)cc2)cc1` (configuration not stated), the MIC was 200 µg/mL (≈ 442 µM) in [6]; 100 µg/mL (≈ 221 µM) in test [7]; 100 µg/mL (≈ 221 µM) in test [1]; 200 µg/mL (≈ 442 µM) in test [8]; 200 µg/mL (≈ 442 µM) in [2]; 200 µg/mL (≈ 442 µM) in test [3]. Also, the MIC in test [9] was 100 µg/mL (≈ 221 µM); in [10], 100 µg/mL (≈ 221 µM); in test [11], 200 µg/mL (≈ 442 µM); in test [12], 200 µg/mL (≈ 442 µM); in [4], 100 µg/mL (≈ 221 µM); in test [13] it was 200 µg/mL (≈ 442 µM). The same molecule gave an MIC in test [5] of 100 µg/mL (≈ 221 µM).

As for `Nc1ccc(C(=O)NN=C2C3CCCC2C(c2ccc(F)cc2)NC3c2ccc(F)cc2)cc1` (configuration not stated), the MIC in [6] came to 100 µg/mL (≈ 217 µM); in [7], 25 µg/mL (≈ 54.3 µM); in [1], 50 µg/mL (≈ 109 µM); in test [8], 50 µg/mL (≈ 109 µM); in [2] it was 200 µg/mL (≈ 434 µM); in [3] it was 100 µg/mL (≈ 217 µM). Further, the MIC in test [9] was found to be 100 µg/mL (≈ 217 µM); in test [10] it was 100 µg/mL (≈ 217 µM); in test [11], 50 µg/mL (≈ 109 µM); in test [12], 50 µg/mL (≈ 109 µM); in test [4], 200 µg/mL (≈ 434 µM); in test [13], 200 µg/mL (≈ 434 µM). The MIC in [5] stood at 100 µg/mL (≈ 217 µM).

With `COc1ccc(C2NC(c3ccc(OC)cc3)C3CCCC2C3=NNC(=O)c2ccc(N)cc2)cc1` (configuration not stated), the MIC amounted to 200 µg/mL (≈ 413 µM) in test [6]; 100 µg/mL (≈ 206 µM) in test [7]; 100 µg/mL (≈ 206 µM) in [1]; 200 µg/mL (≈ 413 µM) in test [8]; 50 µg/mL (≈ 103 µM) in test [2]; 200 µg/mL (≈ 413 µM) in test [3]. Also, the MIC is 100 µg/mL (≈ 206 µM) in test [9]; 100 µg/mL (≈ 206 µM) in test [10]; 50 µg/mL (≈ 103 µM) in [11]; 100 µg/mL (≈ 206 µM) in test [12]; 200 µg/mL (≈ 413 µM) in [4]; 200 µg/mL (≈ 413 µM) in test [13]. Moreover, the MIC in test [5] is 100 µg/mL (≈ 206 µM).

On to `Nc1ccc(C(=O)NN=C2C3CCCC2C(c2ccccc2)NC3c2ccccc2)cc1` (configuration not stated), for which the MIC was found to be 200 µg/mL (≈ 471 µM) in test [6]; 100 µg/mL (≈ 236 µM) in test [7]; 200 µg/mL (≈ 471 µM) in test [1]; 50 µg/mL (≈ 118 µM) in test [8]; 200 µg/mL (≈ 471 µM) in test [2]; 200 µg/mL (≈ 471 µM) in [9]. Further, the MIC is 200 µg/mL (≈ 471 µM) in test [10], 100 µg/mL (≈ 236 µM) in [11], 200 µg/mL (≈ 471 µM) in [12] and 200 µg/mL (≈ 471 µM) in test [13]. Further, the result in test [14] was inactive.

For `CN[C@@H]1[C@H](O[C@H]2[C@H](O[C@H]3[C@H](O)[C@@H](O)[C@H](N=C(N)N)[C@@H](O)[C@@H]3N=C(N)N)O[C@@H](C)[C@]2(O)C=O)O[C@@H](CO)[C@H](O)[C@H]1O` [STREPTOMYCIN], the MIC in test [6] turned out to be 25 µg/mL (≈ 43 µM); in test [7], 12.5 µg/mL (≈ 21.5 µM); in test [8] it was 20 µg/mL (≈ 34.4 µM); in test [9] it was 25 µg/mL (≈ 43 µM); in [10], 50 µg/mL (≈ 86 µM); in test [11] it was 50 µg/mL (≈ 86 µM). In addition, the MIC in [12] turned out to be 25 µg/mL (≈ 43 µM); in test [13], 50 µg/mL (≈ 86 µM).

Take `Nc1ccc(C(=O)NN=C2C3CCCC2C(c2ccccc2Cl)NC3c2ccccc2Cl)cc1` (configuration not stated): the MIC came to 50 µg/mL (≈ 101 µM) in test [6]; 200 µg/mL (≈ 405 µM) in test [7]; 100 µg/mL (≈ 203 µM) in test [1]; 50 µg/mL (≈ 101 µM) in [8]; 200 µg/mL (≈ 405 µM) in [2]; 200 µg/mL (≈ 405 µM) in test [3]. For the same molecule, the MIC in [9] was 100 µg/mL (≈ 203 µM); in [10], 100 µg/mL (≈ 203 µM); in [11], 50 µg/mL (≈ 101 µM); in test [12], 200 µg/mL (≈ 405 µM); in [4], 100 µg/mL (≈ 203 µM); in test [13], 100 µg/mL (≈ 203 µM). In [5], the lowest concentration to inhibit growth (MIC) was 100 µg/mL (≈ 203 µM).
